# Values joined by “and” are separate entries in the source; they are usually repeats but may differ in a detail not shown here. Equal entries are not always repeated. Where two headings read alike, the source gives them in different places.
# Legend:
# TRPV2 = target: T1, TRPV2 (Homo sapiens, UniProt Q9Y5S1); test: Intracellular Ca2+ signal measurements (Fluo-4-AM) in hCMEC/D3 cells; format: cell-based; conditions: for effect on heat-induced [Ca2+]i signals: heat stimulation
# T1 construct: endogenous in cells; host or cells: hCMEC/D3 (human cerebral microvessel endothelial cell line)
# T1 sequence (Q9Y5S1 1-764): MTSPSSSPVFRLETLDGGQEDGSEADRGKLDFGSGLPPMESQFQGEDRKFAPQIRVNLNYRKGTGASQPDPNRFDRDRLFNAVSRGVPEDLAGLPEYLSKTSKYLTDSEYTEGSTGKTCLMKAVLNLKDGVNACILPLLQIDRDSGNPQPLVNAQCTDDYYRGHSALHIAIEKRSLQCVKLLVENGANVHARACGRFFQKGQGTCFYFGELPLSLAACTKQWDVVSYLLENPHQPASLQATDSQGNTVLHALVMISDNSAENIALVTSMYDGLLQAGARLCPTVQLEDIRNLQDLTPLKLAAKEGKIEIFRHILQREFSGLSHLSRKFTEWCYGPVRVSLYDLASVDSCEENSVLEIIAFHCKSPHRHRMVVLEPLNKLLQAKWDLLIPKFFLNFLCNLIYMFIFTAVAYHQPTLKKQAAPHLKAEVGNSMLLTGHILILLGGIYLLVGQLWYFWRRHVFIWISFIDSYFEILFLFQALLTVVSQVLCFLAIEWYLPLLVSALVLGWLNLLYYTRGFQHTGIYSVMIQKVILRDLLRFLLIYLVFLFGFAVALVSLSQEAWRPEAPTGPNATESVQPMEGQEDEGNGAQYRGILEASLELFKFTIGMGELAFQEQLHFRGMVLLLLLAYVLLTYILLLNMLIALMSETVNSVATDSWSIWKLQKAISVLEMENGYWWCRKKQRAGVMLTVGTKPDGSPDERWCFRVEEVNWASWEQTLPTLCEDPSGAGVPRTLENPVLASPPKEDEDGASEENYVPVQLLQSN
# Description: Fluorescence measurement of intracellular Ca2+ ([Ca2+]i) concentration was performed in accordance with our optimized protocol as below: hCMEC/D3 cells grown at 100% confluence in 24-well plates were loaded with 2 μM of fluorescent marker, Fluo-4-AM (λex=496 nm, λem=516 nm, F14201, Thermo Fisher Scientific) for 45 min at 37° C. in a loading Hank's buffer (500 μL/well). The cells were washed and replaced with 500 μL/well buffer. After additional 10 min of incubation at 37° C., the 24-well plates were placed into a Victor™ X2 fluorescent heated microplate reader (PerkinElmer, France). When applying antagonists, cells were pre-treated with the compound for 5 min before to start fluorescent signals recording. Data are expressed as F1/F0, where F0 is the average fluorescence of the control group (no agent or no heat stimulation application) and F1 is the actual fluorescence at the corresponding time for the treated group. To visualize clearly and directly the effect of the chemical agonist and antagonist on [Ca2+]i change, hCMEC/D3 cells were seeded in a 8-well ibidi (1.5 polymer coverslip, CliniSciences). Then, the μ-Slide containing 250 μL/well normal buffer was placed on the platform of a ZEISS 515 […] confocal microscope (Carl Zeiss), and fluo-4-AM loaded cells were photographed using a time-lapse mode every 60 s during 20 min in a humidified 5% CO2 atmosphere at 37° C. Images of hCMEC/D3 were analysed in Fiji app running Image J software.
# (§1) Data are expressed as mean value±SEM. Statistical analysis was performed using ANOVA with Dunnett a posteriori test to compare different groups with the control. P value<0.05 was considered statistically significant. […] To calculate IC50 of antagonists (RR and TNL), the concentration-response data were fitted to a logistic function as follows: Y=100/(1+10(log IC50−X)×HillSlope) where Y is the normalized response from 100% down to 0%, X is the decimal log of concentration, HillSlope is the slope. Data fitting was all performed in GraphPad Prism 5.01 software.
# [1] = MTT cell viability assay in hCMEC/D3 cells; format: cell-based, human; conditions: human, read-out: decrease of cell viability (MTT)
# From the text: (§2) To study the effects of TRPV2 agonists and antagonists and silencing TRPV2 on cell viability, the 3-(4,5-dimethyl-2-thiazolyl)-2,5-diphenyl-2-H-tetrazolium bromide assay (MTT, Sigma-Aldrich) evaluating cell mitochondrial activity and Trypan blue exclusion assay evaluating living cells were applied. Cells were firstly treated under three conditions mentioned above (Control, negative siRNA, and TRPV2 siRNA) in a 6-well plate. After transfection, cells were re-distributed in a new plate with the same cell number and the same medium in each well. Cell viability were analysed at 0, 24 h, 48 h, 72 h after re-distribution. For MTT assay, cells were re-distributed in 96-well plates at a density of 1×10^4 cells/well, 6 wells per group, one plate four each time. For Trypan blue exclusion assay, cells were re-distributed in 24-well plates at a density of 5×10^4 cells/well. The number of living cells (not stained by Trypan blue) in each well was counted in a TC20™ Automated Cell Counter (Bio-Rad) at each time point, with 3 wells per group.
# (§3) After 24 h treatment, the wells were replaced with 100 μL/well fresh complete medium, and 20 μL MTT solution (diluted in PBS buffer, 5 mg·mL-1) was added to each well. And, the plates were kept at 37° C. for an additional 4 h. Then the medium was removed and replaced with 100 μL DMSO per well, in order to dissolve the formazan. The plates were read using a Victor™ X2 microplate reader at 490 nm (PerkinElmer).
# as §1
# hCMEC/D3 cells [2] = test: MTT cell viability assay in hCMEC/D3 cells; format: cell-based, human; conditions: for CBD-induced proliferation level (MTT, CTL=100%): 3 μM CBD
# From the text: as §2, §3, §1
# hCMEC/D3 cells [3] = test: Trypan blue exclusion assay (number of viable cells) in hCMEC/D3 cells; format: cell-based, human
# From the text: as §2
# hCMEC/D3 cells [4] = test: ATP CellTiter-Glo luminescent cell viability assay in hCMEC/D3 cells; format: cell-based, human
# Description: FIG. 4: Pharmacological and genetic inhibition of TRPV2 reverse CBD-induced cell death of hCMEC/D3 cells. […] Cell viability was measured by ATP CellTiter-Glo luminescent cell viability assay. […] Cell viability was measured by ATP CellTiter-Glo luminescent cell viability assay. […] (D) Effect of silencing TRPV2 in CBD-induced cell cytotoxicity. […] Data are expressed as mean±SEM.
# To further validate the involvement of TRPV2 in CBD-induced cell death of hCMEC/D3 cells, pharmacological and genetic inhibition strategies were used. The number of viable cells was evaluated by quantitating total ATP in cells treated by CBD. […] This further indicates the role of TRPV2 at least partly in the CBD-induced cell death.
# hCMEC/D3 cells [5] = test: Wound healing migration assay in hCMEC/D3 cells; format: cell-based, human; conditions: for effect on cell migration vs control group: 3 μM CBD
# Description: Cell migration was determined with wound healing assay in hCMEC/D3 as reported previously20. Briefly, a standard wound was created by scratching the cell monolayer of hCMEC/D3 cells with a sterile 200 μL plastic pipette tip and line makers were made at the bottom of plates to indicate the wound edges. After removing cell fragments, the cells were incubated at 37° C. with medium containing 5% FBS. In order to minimize avoid the effect of cell proliferation on would healing assay, the medium was absent of bFGF. The areas of the wound and wound repair activity were photographed by phase contrast microscope (Olympus, Japan) at 0, 4, 8, 24 h. […] After 3 days, cells were prepared for wound healing assay with 100% confluence. […] To study the effects of silencing TRPV2 channel on cell proliferation, the cells were firstly treated under three conditions mentioned above (Control, negative siRNA, and TRPV2 siRNA) in a 6-wells plate. After transfection, the cells were re-distributed in 12-well plate at a density of 5×10^5 cells/well in 750 μL complete culture medium. When cells were 100% confluent, the wound healing assay was started following the above-mentioned protocol. Assays were performed 3 times in triplicate.
# hCMEC/D3 cells [6] = test: Tubulogenesis, 3D culture of hCMEC/D3 cells in Matrigel; format: cell-based, human; conditions: for increase of closing tube number vs control group: 3 μM CBD
# Description: 3D culture of hCMEC/D3 human BBB endothelial cells was performed using Matrigel (Corning). Matrigel, stored at 4° C. at least 24 h before the assay, was added to a 48-well plate (150 μL/well), and then the plate was incubated at 37° C. for 1 h to allow Matrigel polymerization. […] 500 μL/well fresh complete medium containing cells were distributed in the 48-well plate. After 2 h, 7 h and 24 h incubation, images of the wells in the plate were taken. […] Assays were performed 3 times in triplicate and tubule-like structure lumen count was realized with Image J software.
# hPBMEC monolayers = test: TEER of in vitro human BBB model using hPBMECs on Transwell; format: cell-based; conditions: 50 μM TNL co-treatment with 1 μM CBD
# From the text: Human Primary Brain Microvascular Endothelial Cells (hPBMECs). Brain capillary endothelial cells were isolated from surgical resections of patients with brain tumors. […] In brief, brain capillaries were isolated using soft digestion of patient brain peritumoral tissues and then seeded. Brain primary microvascular endothelial cells were shortly amplified and seeded on Transwell® (Corning) with microporous membranes (pore size: 0.4 μm) in monoculture or in co-culture with the same patient's fresh primary human cultured astrocytes. Cells were cultured in EBM-2 medium (Lonza, Basel, Switzerland) supplemented with 20% serum and growth factors (Sigma).
# After 24 h co-culture, CBD (1 μM) or the same proportion of vehicle was added into the cell inserts. To study the involvement of TRPV2 in CBD-induced effect, cells were pre-treated with 50 μM TNL for 5 min before adding CBD. The TEER values expressed in Ω·cm2 were recorded after 1, 2, 4, 10, 24, 31, 48, 72, 96, 120 h of CBD treatment.
compound,measurement,setting,value
"C=C(C)[C@@H]1CCC(C)=C[C@H]1c1c(O)cc(CCCCC)cc1O [CBD, cannabidiol]",increase of [Ca2+]i area under the curve (AUC) vs control,"TRPV2; 30 μM CBD, 20 min incubation",1.5 fold
same,lowest concentration with significant increase of [Ca2+]i AUC,TRPV2; 20 min incubation,0.3 µM
same,"cytotoxicity at 24 h, 15 μM",[1]; hCMEC/D3 cells silenced for TRPV2 (TRPV2 siRNA),6%
same,"cytotoxicity at 24 h, 15 μM",[1]; hCMEC/D3 cells treated with negative (NEG) siRNA,27%
same,"cytotoxicity at 24 h, 15 μM",[1]; hCMEC/D3 cells,37%
same,"cytotoxicity at 48 h, 15 μM",[1]; hCMEC/D3 cells,77%
same,"cytotoxicity at 72 h, 15 μM",[1]; hCMEC/D3 cells,78%
same,"CBD-induced proliferation level (MTT, CTL=100%)","hCMEC/D3 cells [2]; 24 h, siNEG cells",125.9±4.0%
same,"CBD-induced proliferation level (MTT, CTL=100%)","hCMEC/D3 cells [2]; 24 h, siTRPV2 cells",113.0±2.1%
same,increase of MTT absorbance vs control group,"hCMEC/D3 cells [2]; 10 μM CBD, 24 h",22.0±1.2%
same,lowest concentration with significantly increased MTT absorbance,hCMEC/D3 cells [2]; 24 h,0.3 µM
same,EC50,"hCMEC/D3 cells [2]; Homo sapiens, hCMEC/D3, 24 h, read-out: EC50 of CBD effect on MTT absorbance (cell viability)",~300 nM
same,increase of the number of viable cells,hCMEC/D3 cells [3]; 3 μM CBD,1.2 fold
same,effect on cell viability (ATP),"hCMEC/D3 cells [4]; 30 μM CBD, 2 h",significantly decreased
same,effect on cell migration vs control group,hCMEC/D3 cells [5]; 4 h post wound,significant pro-migration effect
same,effect on cell migration vs control group,"hCMEC/D3 cells [5]; 8 h post wound, p<0.05",significant increase
same,increase of closing tube number vs control group,hCMEC/D3 cells [6]; 7 h,41% and 42.0±14.0%
same,increase of closing tube number vs control group,hCMEC/D3 cells [6]; 24 h,73% and 73.0±15.3%
CC(C)C[C@H](NC(=O)c1cc2ccccc2s1)C(=O)N1CCN(C(=O)[C@H](CO)NS(=O)(=O)c2ccc(Cl)cc2Cl)CC1 [GSK1016790A],effect on cell viability (MTT),"hCMEC/D3 cells [2]; GSK1016790A 1 μM, 24, 48 or 72 h",did not alter cell viability
"N.N.N.N.N.N.N.N.N.N.N.N.N.N.[Cl-].[Cl-].[Cl-].[Cl-].[Cl-].[Cl-].[O-2].[O-2].[Ru+3].[Ru+3].[Ru+4] [RR, ruthenium red]",effect on CBD-induced elevation of [Ca2+]i,"TRPV2; 10 μM RR pretreatment, 15 μM CBD",fully abolished
same,IC50,"TRPV2; 15 μM CBD, antagonist pre-treatment 5 min, read-out: IC50 of inhibition of CBD-mediated elevation of [Ca2+]i",7.7 ± 1.7 µM
same,effect on heat-induced [Ca2+]i signals,TRPV2; RR,significantly decreased
"COc1ccc(/C=C/C(=O)Nc2ccccc2C(=O)O)cc1OC [TNL, tranilast]",effect on CBD-mediated lasting elevation of [Ca2+]i,"TRPV2; 100 μM TNL, 15 μM CBD",fully abolished
same,effect on heat-induced [Ca2+]i signals,TRPV2; TNL 50 or 100 μM,significantly decreased
same,effect on CBD-induced increase of viable cells,hCMEC/D3 cells [3]; 50 μM TNL with 3 μM CBD,totally inhibited
same,effect on CBD-induced decrease in cell viability (ATP),"hCMEC/D3 cells [4]; 50 μM TNL, 15 μM CBD, 48 h",partly reversed
same,effect on CBD-induced decrease in cell viability (ATP),"hCMEC/D3 cells [4]; 100 μM TNL, 30 μM CBD, 2 h",reversed
same,effect on pro-migration effect of CBD,"hCMEC/D3 cells [5]; 50 μM TNL co-treatment with 3 μM CBD, 8 h",totally inhibited
same,effect on CBD-induced tube formation,"hCMEC/D3 cells [6]; 50 μM TNL co-treatment with 3 μM CBD, 7 h",inhibited
same,effect on CBD-induced tube formation,"hCMEC/D3 cells [6]; 50 μM TNL with 3 μM CBD, 24 h",totally reversed
same,effect on CBD-induced TEER increase,hPBMEC monolayers,totally inhibited
